Measured values from PubChem BioAssay AID1963966 (Molecular Pharmacology Branch, DTP, NCI, 2024).
pIC50: −log10 of the molar value.

Tested on: 935938-334-R-J1-PDC spheroids with HUVEC/MSC, viability
Assay: Anticancer human tumor 935938-334-R-J1-PDC patient-derived small intestine adenocarcinoma cell line growth inhibition [PI3K]
Settings: for pIC50: curve of first compound; for viability, T/C: stronger effect = lower value
Procedure, shortened: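 Stroma-containing spheroids: tumor line, pooled-donor HUVEC, hMSC. Treatments: targeted agents with PI3K inhibitors. Dosing: clinically relevant, half-log spacing, 10 microM ceiling without known Cmax. Read-out: cell viability.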

[1] = second compound 0.00316 µM, first compound 0.0316 µM
[2] = second compound 0.00316 µM, first compound 0.1 µM
[3] = second compound 0.00316 µM, first compound 0.316 µM
[4] = second compound 0.00316 µM, first compound 1 µM
[5] = second compound 0.00316 µM, first compound 3.16 µM
[6] = second compound 0.00316 µM, first compound 10 µM
[7] = second compound 0.01 µM, first compound 0.0316 µM
[8] = second compound 0.01 µM, first compound 0.1 µM
[9] = second compound 0.01 µM, first compound 0.316 µM
[10] = second compound 0.01 µM, first compound 1 µM
[11] = second compound 0.01 µM, first compound 3.16 µM
[12] = second compound 0.01 µM, first compound 10 µM
[13] = second compound 0.0316 µM, first compound 0.0316 µM
[14] = second compound 0.0316 µM, first compound 0.1 µM
[15] = second compound 0.0316 µM, first compound 0.316 µM
[16] = second compound 0.0316 µM, first compound 1 µM
[17] = second compound 0.0316 µM, first compound 3.16 µM
[18] = second compound 0.0316 µM, first compound 10 µM
[19] = second compound 0.1 µM, first compound 0.0316 µM
[20] = second compound 0.1 µM, first compound 0.1 µM
[21] = second compound 0.1 µM, first compound 0.316 µM
[22] = second compound 0.1 µM, first compound 1 µM
[23] = second compound 0.1 µM, first compound 3.16 µM
[24] = second compound 0.1 µM, first compound 10 µM
[25] = second compound 0.316 µM, first compound 0.0316 µM
[26] = second compound 0.316 µM, first compound 0.1 µM
[27] = second compound 0.316 µM, first compound 0.316 µM
[28] = second compound 0.316 µM, first compound 1 µM
[29] = second compound 0.316 µM, first compound 3.16 µM
[30] = second compound 0.316 µM, first compound 10 µM
[31] = second compound 1 µM, first compound 0.0316 µM
[32] = second compound 1 µM, first compound 0.1 µM
[33] = second compound 1 µM, first compound 0.316 µM
[34] = second compound 1 µM, first compound 1 µM
[35] = second compound 1 µM, first compound 3.16 µM
[36] = second compound 1 µM, first compound 10 µM
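Note: compound exposure lasted seven days before viability was read.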
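Throughout, for viability, T/C: percent of vehicle DMSO treated spheroid viability so 100% = untreated.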

CC(C)NCC(C(=O)N1CCN(c2ncnc3c2C(C)CC3O)CC1)c1ccc(Cl)cc1 (stereo not drawn) + CC(Nc1ccc2c(c1)OCCn1cc(N3C(=O)OCC3C(F)F)nc1-2)C(N)=O
pIC50 (second compound 0.00316 µM): 5.77
pIC50 (second compound 0.01 µM): 5.48
pIC50 (second compound 0.0316 µM): 6.09
pIC50 (second compound 0.1 µM): 6.19
pIC50 (second compound 0.316 µM): 6.14
pIC50 (second compound 1 µM): 6.48
viability, T/C [1]: 76.6%
viability, T/C [2]: 96.7%
viability, T/C [3]: 77.9%
viability, T/C [4]: 58%
viability, T/C [5]: 41.5%
viability, T/C [6]: 36.1%
viability, T/C [7]: 47.5%
viability, T/C [8]: 75.7%
viability, T/C [9]: 85%
viability, T/C [10]: 65.4%
viability, T/C [11]: 51.1%
viability, T/C [12]: 28.6%
viability, T/C [13]: 53.1%
viability, T/C [14]: 76.5%
viability, T/C [15]: 65.5%
viability, T/C [16]: 46.5%
viability, T/C [17]: 35.3%
viability, T/C [18]: 30%
viability, T/C [19]: 94.9%
viability, T/C [20]: 84.1%
viability, T/C [21]: 56.1%
viability, T/C [22]: 44%
viability, T/C [23]: 44%
viability, T/C [24]: 28.3%
viability, T/C [25]: 55.5%
viability, T/C [26]: 75.7%
viability, T/C [27]: 68.3%
viability, T/C [28]: 43.6%
viability, T/C [29]: 23.4%
viability, T/C [30]: 24.8%
viability, T/C [31]: 35.1%
viability, T/C [32]: 52.9%
viability, T/C [33]: 63.5%
viability, T/C [34]: 34.1%
viability, T/C [35]: 19.8%
viability, T/C [36]: 28.6%

CCN1CCN(Cc2ccc(Nc3ncc(F)c(-c4cc(F)c5nc(C)n(C(C)C)c5c4)n3)nc2)CC1 + CC(Nc1ccc2c(c1)OCCn1cc(N3C(=O)OCC3C(F)F)nc1-2)C(N)=O
pIC50 (second compound 0.00316 µM): 6.90
pIC50 (second compound 0.01 µM): 6.77
pIC50 (second compound 0.0316 µM): 7.33
pIC50 (second compound 0.1 µM): > 8.50
pIC50 (second compound 0.316 µM): 7.49
pIC50 (second compound 1 µM): > 8.50
viability, T/C (second compound 0.00316 µM, first compound 0.00316 µM): 60.1%
viability, T/C (second compound 0.00316 µM, first compound 0.01 µM): 67.3%
viability, T/C [1]: 66%
viability, T/C [2]: 49.8%
viability, T/C [3]: 37.6%
viability, T/C [4]: 18.1%
viability, T/C (second compound 0.01 µM, first compound 0.00316 µM): 59.6%
viability, T/C (second compound 0.01 µM, first compound 0.01 µM): 58%
viability, T/C [7]: 65%
viability, T/C [8]: 64.4%
viability, T/C [9]: 35.6%
viability, T/C [10]: 15.5%
viability, T/C (second compound 0.0316 µM, first compound 0.00316 µM): 83.7%
viability, T/C (second compound 0.0316 µM, first compound 0.01 µM): 68.3%
viability, T/C [13]: 56.8%
viability, T/C [14]: 39%
viability, T/C [15]: 28.8%
viability, T/C [16]: 19.6%
viability, T/C (second compound 0.1 µM, first compound 0.00316 µM): 42.6%
viability, T/C (second compound 0.1 µM, first compound 0.01 µM): 55.9%
viability, T/C [19]: 51.3%
viability, T/C [20]: 45.1%
viability, T/C [21]: 28.9%
viability, T/C [22]: 16.2%
viability, T/C (second compound 0.316 µM, first compound 0.00316 µM): 43%
viability, T/C (second compound 0.316 µM, first compound 0.01 µM): 51.5%
viability, T/C [25]: 56%
viability, T/C [26]: 26.8%
viability, T/C [27]: 23.3%
viability, T/C [28]: 14.7%
viability, T/C (second compound 1 µM, first compound 0.00316 µM): 44.3%
viability, T/C (second compound 1 µM, first compound 0.01 µM): 38%
viability, T/C [31]: 50.3%
viability, T/C [32]: 25.4%
viability, T/C [33]: 22.3%
viability, T/C [34]: 20.6%

Cn1ncc(Cl)c1-c1cc(C(=O)NC(CN)Cc2cccc(F)c2)sc1Cl (stereo not drawn) + CC(Nc1ccc2c(c1)OCCn1cc(N3C(=O)OCC3C(F)F)nc1-2)C(N)=O
pIC50 (second compound 0.00316 µM): < 5.00
pIC50 (second compound 0.01 µM): < 5.00
pIC50 (second compound 0.0316 µM): < 5.00
pIC50 (second compound 0.1 µM): 6.12
pIC50 (second compound 0.316 µM): 6.58
pIC50 (second compound 1 µM): > 7.50
viability, T/C [1]: 107%
viability, T/C [2]: 69%
viability, T/C [3]: 60.8%
viability, T/C [4]: 57.9%
viability, T/C [5]: 56.5%
viability, T/C [6]: 116%
viability, T/C [7]: 104%
viability, T/C [8]: 79.4%
viability, T/C [9]: 53%
viability, T/C [10]: 72.8%
viability, T/C [11]: 40.9%
viability, T/C [12]: 99.8%
viability, T/C [13]: 102%
viability, T/C [14]: 73.2%
viability, T/C [15]: 56.7%
viability, T/C [16]: 49.2%
viability, T/C [17]: 35.9%
viability, T/C [18]: 86%
viability, T/C [19]: 80.6%
viability, T/C [20]: 74.7%
viability, T/C [21]: 55.5%
viability, T/C [22]: 39.1%
viability, T/C [23]: 32.5%
viability, T/C [24]: 72.8%
viability, T/C [25]: 70.9%
viability, T/C [26]: 65.5%
viability, T/C [27]: 47.1%
viability, T/C [28]: 41%
viability, T/C [29]: 28.1%
viability, T/C [30]: 55.7%
viability, T/C [31]: 56.7%
viability, T/C [32]: 51.1%
viability, T/C [33]: 43.3%
viability, T/C [34]: 31.4%
viability, T/C [35]: 39%
viability, T/C [36]: 72.4%

Cn1nccc1Nc1nccc(-c2ccn(C(CO)c3ccc(Cl)c(F)c3)c(=O)c2)n1 (stereo not drawn) + CC(Nc1ccc2c(c1)OCCn1cc(N3C(=O)OCC3C(F)F)nc1-2)C(N)=O
pIC50 (second compound 0.00316 µM): 5.85
pIC50 (second compound 0.01 µM): 6.08
pIC50 (second compound 0.0316 µM): 5.84
pIC50 (second compound 0.1 µM): 6.11
pIC50 (second compound 0.316 µM): 6.30
pIC50 (second compound 1 µM): 6.83
viability, T/C [1]: 101%
viability, T/C [2]: 92.6%
viability, T/C [3]: 70.6%
viability, T/C [4]: 57.2%
viability, T/C [5]: 37.5%
viability, T/C [6]: 37%
viability, T/C [7]: 99.9%
viability, T/C [8]: 82.1%
viability, T/C [9]: 73.8%
viability, T/C [10]: 41.4%
viability, T/C [11]: 38.9%
viability, T/C [12]: 33.7%
viability, T/C [13]: 108%
viability, T/C [14]: 81.9%
viability, T/C [15]: 66%
viability, T/C [16]: 59.5%
viability, T/C [17]: 38.8%
viability, T/C [18]: 31.4%
viability, T/C [19]: 87.6%
viability, T/C [20]: 71.7%
viability, T/C [21]: 63.8%
viability, T/C [22]: 48.6%
viability, T/C [23]: 30.3%
viability, T/C [24]: 25.8%
viability, T/C [25]: 86.5%
viability, T/C [26]: 71.2%
viability, T/C [27]: 53%
viability, T/C [28]: 44.7%
viability, T/C [29]: 29.7%
viability, T/C [30]: 21.6%
viability, T/C [31]: 70.3%
viability, T/C [32]: 55.1%
viability, T/C [33]: 39.5%
viability, T/C [34]: 30.1%
viability, T/C [35]: 23.2%
viability, T/C [36]: 23.4%
